Reference: the kinase profiling compilation of Christmann-Franck et al. (2016)

Tests used:
Test in all cases: KINOMEscan competition binding
Settings in all cases: compound 10.0 µM
NTRK3 (human) = NTRK3 (human) (UniProt Q16288)
INSRR (human) = INSRR (human) (UniProt P14616)
ACVRL1 (human) = ACVRL1 (human) (UniProt P37023)
MAPK12 (human) = MAPK12 (human) (UniProt P53778)
BTK (human) = BTK (human) (UniProt Q06187)
PHKG1 (human) = PHKG1 (human) (UniProt Q16816)
MAP2K6 (human) = MAP2K6 (human) (UniProt P52564)
PKN2 (human) = PKN2 (human) (UniProt Q16513)
NEK7 (human) = NEK7 (human) (UniProt Q8TDX7)
[1] = test system: ABL1 (human), P00519 [H396P]
CHEK2 (human) = CHEK2 (human) (UniProt O96017)
SLK (human) = SLK (human) (UniProt Q9H2G2)
CAMK2D (human) = CAMK2D (human) (UniProt Q13557)
CDC42BPB (human) = CDC42BPB (human) (UniProt Q9Y5S2)
RPS6KA4 KD1 (human) = RPS6KA4 KD1 (human) (UniProt O75676)
TNK2 (human) = TNK2 (human) (UniProt Q07912)
ROCK2 (human) = ROCK2 (human) (UniProt O75116)
RPS6KA5 KD1 (human) = RPS6KA5 KD1 (human) (UniProt O75582)
MAP4K1 (human) = MAP4K1 (human) (UniProt Q92918)
PAK2 (human) = PAK2 (human) (UniProt Q13177)
FLT4 (human) = FLT4 (human) (UniProt P35916)
Sequence of FLT4 (human) (P35916 whole entry, looked up): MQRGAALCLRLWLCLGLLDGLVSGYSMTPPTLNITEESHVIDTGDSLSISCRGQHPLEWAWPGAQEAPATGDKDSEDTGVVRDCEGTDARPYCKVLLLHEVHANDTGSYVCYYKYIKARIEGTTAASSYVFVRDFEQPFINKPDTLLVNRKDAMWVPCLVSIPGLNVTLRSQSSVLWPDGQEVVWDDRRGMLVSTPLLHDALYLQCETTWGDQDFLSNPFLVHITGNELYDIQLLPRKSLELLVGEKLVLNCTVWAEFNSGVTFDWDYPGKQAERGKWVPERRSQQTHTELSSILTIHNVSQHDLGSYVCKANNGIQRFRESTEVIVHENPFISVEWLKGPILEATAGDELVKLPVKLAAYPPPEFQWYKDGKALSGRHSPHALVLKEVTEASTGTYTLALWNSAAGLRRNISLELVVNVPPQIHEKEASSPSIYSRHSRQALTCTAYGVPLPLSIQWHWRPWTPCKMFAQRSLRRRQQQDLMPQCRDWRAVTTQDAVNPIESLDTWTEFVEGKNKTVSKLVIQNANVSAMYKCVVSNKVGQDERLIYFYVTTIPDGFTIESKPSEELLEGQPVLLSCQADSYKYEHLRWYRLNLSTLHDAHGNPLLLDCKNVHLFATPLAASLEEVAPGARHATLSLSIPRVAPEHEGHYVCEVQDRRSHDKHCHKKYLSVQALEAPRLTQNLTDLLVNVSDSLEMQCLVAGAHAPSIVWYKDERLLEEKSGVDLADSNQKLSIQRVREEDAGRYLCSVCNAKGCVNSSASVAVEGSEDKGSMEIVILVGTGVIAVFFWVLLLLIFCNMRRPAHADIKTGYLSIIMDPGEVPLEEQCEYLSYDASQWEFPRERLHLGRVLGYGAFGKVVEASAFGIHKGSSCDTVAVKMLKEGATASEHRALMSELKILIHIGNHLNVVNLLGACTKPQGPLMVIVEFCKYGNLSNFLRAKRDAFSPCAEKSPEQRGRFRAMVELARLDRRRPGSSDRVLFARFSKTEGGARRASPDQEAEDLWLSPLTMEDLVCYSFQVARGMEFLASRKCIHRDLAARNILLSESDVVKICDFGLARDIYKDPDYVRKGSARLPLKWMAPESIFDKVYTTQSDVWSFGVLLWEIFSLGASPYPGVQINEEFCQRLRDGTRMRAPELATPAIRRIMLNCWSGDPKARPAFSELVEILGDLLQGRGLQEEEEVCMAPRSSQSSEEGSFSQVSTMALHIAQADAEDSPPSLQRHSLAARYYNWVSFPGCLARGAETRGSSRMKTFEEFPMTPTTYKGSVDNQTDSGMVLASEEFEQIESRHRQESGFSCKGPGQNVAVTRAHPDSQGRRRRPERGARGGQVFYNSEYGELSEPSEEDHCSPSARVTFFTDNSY

[2] = test system: ABL1 (human), P00519 [Y253F]
[3] = test system: RET (human), P07949 [V804L]
EPHA5 (human) = EPHA5 (human) (UniProt P54756)
TEC (human) = TEC (human) (UniProt P42680)
Sequence of TEC (human) (P42680 whole entry, looked up): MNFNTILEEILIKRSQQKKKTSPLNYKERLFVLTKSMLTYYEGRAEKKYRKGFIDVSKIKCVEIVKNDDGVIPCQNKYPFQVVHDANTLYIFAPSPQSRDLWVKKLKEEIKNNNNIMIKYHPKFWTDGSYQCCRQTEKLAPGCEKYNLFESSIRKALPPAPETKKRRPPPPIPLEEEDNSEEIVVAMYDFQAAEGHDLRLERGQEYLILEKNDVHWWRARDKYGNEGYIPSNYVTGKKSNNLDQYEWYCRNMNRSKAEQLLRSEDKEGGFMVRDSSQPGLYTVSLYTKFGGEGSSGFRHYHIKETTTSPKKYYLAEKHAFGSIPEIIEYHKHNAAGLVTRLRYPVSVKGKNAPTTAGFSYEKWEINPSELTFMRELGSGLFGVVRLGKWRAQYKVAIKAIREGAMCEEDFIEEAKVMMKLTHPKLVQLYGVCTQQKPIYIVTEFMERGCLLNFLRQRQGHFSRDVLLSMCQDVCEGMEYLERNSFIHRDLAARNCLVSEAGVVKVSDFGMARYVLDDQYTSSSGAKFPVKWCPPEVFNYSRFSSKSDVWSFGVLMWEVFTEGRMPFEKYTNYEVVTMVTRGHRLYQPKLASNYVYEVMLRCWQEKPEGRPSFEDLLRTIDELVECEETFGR

NEK1 (human) = NEK1 (human) (UniProt Q96PY6)
RET (human) = RET (human) (UniProt P07949)
TGFBR1 (human) = TGFBR1 (human) (UniProt P36897)
Sequence of TGFBR1 (human) (P36897 whole entry, looked up): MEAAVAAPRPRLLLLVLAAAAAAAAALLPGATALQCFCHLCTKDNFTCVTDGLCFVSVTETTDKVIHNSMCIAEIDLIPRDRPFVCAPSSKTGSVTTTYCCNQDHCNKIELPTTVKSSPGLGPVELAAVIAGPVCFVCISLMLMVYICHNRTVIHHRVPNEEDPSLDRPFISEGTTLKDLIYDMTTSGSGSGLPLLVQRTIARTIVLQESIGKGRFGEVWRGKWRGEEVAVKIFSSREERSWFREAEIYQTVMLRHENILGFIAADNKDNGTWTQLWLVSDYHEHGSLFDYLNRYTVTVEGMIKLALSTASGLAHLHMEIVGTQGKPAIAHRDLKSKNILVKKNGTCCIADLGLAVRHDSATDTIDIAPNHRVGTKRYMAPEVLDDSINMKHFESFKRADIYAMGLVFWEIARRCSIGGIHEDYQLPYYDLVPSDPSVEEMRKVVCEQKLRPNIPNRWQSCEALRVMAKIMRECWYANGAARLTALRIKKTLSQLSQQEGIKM

FGFR4 (human) = FGFR4 (human) (UniProt P22455)
BRSK1 (human) = BRSK1 (human) (UniProt Q8TDC3)
[4] = biological target: JAK1 JH1 catalytic (human) (UniProt P23458)
PAK7 (human) = PAK7 (human) (UniProt Q9P286)
Sequence of PAK7 (human) (Q9P286 whole entry, looked up): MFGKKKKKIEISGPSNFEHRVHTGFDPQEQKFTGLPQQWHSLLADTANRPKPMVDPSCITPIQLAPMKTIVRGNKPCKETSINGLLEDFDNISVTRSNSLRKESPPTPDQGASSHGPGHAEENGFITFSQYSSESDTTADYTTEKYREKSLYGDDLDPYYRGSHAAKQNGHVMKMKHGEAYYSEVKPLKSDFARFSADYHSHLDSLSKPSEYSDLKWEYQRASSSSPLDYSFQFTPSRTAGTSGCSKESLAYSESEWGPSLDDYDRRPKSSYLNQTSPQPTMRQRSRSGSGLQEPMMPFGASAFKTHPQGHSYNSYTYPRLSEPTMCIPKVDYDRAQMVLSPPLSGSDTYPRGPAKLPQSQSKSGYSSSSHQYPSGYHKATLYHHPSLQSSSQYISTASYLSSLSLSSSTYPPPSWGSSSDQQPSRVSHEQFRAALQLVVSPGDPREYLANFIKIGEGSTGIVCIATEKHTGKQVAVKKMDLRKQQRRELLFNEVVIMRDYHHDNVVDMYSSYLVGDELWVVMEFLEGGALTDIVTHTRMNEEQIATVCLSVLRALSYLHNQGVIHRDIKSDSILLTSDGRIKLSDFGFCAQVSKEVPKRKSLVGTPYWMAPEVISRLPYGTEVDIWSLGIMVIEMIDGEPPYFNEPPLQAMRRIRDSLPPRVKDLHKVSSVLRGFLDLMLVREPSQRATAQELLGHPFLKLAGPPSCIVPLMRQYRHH

AKT3 (human) = AKT3 (human) (UniProt Q9Y243)
PAK1 (human) = PAK1 (human) (UniProt Q13153)
ANKK1 (human) = ANKK1 (human) (UniProt Q8NFD2)
WEE2 (human) = WEE2 (human) (UniProt P0C1S8)
DCLK2 (human) = DCLK2 (human) (UniProt Q8N568)
PRKAA2 (human) = PRKAA2 (human) (UniProt P54646)
STK35 (human) = STK35 (human) (UniProt Q8TDR2)
[5] = test system: EGFR (human), P00533 [P753S; 747-752 del]
[6] = test system: EGFR (human), P00533 [L858R]
[7] = biological target: TYK2 JH1 catalytic (human) (UniProt P29597)
Sequence of TYK2 JH1 catalytic (human) (P29597 whole entry, looked up): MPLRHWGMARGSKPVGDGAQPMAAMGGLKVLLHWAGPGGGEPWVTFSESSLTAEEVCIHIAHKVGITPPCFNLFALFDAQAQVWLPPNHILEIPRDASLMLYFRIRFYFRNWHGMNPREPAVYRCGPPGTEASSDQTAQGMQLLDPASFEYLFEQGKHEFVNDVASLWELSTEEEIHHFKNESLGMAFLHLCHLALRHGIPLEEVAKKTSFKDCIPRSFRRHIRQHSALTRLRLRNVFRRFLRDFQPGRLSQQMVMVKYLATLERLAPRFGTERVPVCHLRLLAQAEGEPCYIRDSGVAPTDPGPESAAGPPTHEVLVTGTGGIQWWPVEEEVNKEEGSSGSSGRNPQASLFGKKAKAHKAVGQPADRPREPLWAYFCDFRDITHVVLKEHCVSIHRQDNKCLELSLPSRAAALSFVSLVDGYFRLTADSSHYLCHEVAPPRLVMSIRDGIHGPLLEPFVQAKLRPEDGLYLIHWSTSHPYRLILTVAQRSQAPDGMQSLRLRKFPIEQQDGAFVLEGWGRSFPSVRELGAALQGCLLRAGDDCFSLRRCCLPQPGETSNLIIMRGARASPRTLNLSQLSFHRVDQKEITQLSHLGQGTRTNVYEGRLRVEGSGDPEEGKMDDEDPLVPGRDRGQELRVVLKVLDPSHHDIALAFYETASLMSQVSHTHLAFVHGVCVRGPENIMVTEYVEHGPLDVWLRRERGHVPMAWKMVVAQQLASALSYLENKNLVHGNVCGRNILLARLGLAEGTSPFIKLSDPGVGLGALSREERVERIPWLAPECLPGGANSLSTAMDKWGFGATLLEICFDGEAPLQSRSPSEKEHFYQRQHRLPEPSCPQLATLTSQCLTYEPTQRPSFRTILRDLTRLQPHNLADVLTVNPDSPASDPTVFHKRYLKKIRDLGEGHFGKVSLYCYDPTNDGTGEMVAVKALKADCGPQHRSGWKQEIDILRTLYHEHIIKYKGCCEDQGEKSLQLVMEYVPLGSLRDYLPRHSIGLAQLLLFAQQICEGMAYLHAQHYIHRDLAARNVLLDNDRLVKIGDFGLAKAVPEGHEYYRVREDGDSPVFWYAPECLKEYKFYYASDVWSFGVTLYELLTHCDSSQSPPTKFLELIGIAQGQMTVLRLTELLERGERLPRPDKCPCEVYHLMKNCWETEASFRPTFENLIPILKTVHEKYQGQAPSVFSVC

Sequence of BTK (human) (Q06187 whole entry, looked up): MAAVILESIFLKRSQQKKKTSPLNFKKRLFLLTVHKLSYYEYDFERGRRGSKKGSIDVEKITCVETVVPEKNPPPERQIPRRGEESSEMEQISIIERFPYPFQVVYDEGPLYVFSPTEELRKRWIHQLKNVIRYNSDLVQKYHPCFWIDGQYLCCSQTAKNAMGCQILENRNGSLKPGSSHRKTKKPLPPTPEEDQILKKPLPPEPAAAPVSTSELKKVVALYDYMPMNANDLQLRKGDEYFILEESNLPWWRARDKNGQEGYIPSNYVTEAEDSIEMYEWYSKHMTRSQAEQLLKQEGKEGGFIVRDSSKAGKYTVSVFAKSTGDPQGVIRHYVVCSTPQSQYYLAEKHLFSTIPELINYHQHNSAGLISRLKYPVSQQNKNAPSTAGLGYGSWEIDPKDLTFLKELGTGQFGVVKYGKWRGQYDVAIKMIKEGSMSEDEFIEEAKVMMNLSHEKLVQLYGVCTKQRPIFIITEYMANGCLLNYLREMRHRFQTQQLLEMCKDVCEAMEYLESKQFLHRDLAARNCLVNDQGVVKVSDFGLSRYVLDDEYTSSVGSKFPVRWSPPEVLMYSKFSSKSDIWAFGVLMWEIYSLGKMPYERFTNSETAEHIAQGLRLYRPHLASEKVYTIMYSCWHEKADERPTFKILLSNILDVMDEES

## COc1cc(N2CCC(O)CC2)ccc1Nc1ncc2c(n1)N1CCc3cccc(c31)C(=O)N2C
NTRK3 (human)
  kinase still bound, per cent of control: 93%
INSRR (human)
  kinase still bound, per cent of control: 78%
ACVRL1 (human)
  kinase still bound, per cent of control: 100%
MAPK12 (human)
  kinase still bound, per cent of control: 67%
BTK (human)
  kinase still bound, per cent of control: 78%
PHKG1 (human)
  kinase still bound, per cent of control: 89%
MAP2K6 (human)
  kinase still bound, per cent of control: 100%
PKN2 (human)
  kinase still bound, per cent of control: 100%
NEK7 (human)
  kinase still bound, per cent of control: 98%
[1]
  kinase still bound, per cent of control: 100%
CHEK2 (human)
  kinase still bound, per cent of control: 42%
SLK (human)
  kinase still bound, per cent of control: 95%
CAMK2D (human)
  kinase still bound, per cent of control: 65%
CDC42BPB (human)
  kinase still bound, per cent of control: 94%
RPS6KA4 KD1 (human)
  kinase still bound, per cent of control: 96%
TNK2 (human)
  kinase still bound, per cent of control: 23%
ROCK2 (human)
  kinase still bound, per cent of control: 86%
RPS6KA5 KD1 (human)
  kinase still bound, per cent of control: 59%
MAP4K1 (human)
  kinase still bound, per cent of control: 96%
PAK2 (human)
  kinase still bound, per cent of control: 67%
FLT4 (human)
  kinase still bound, per cent of control: 93%
[2]
  kinase still bound, per cent of control: 100%
[3]
  kinase still bound, per cent of control: 100%
EPHA5 (human)
  kinase still bound, per cent of control: 88%
TEC (human)
  kinase still bound, per cent of control: 100%
NEK1 (human)
  kinase still bound, per cent of control: 60%
RET (human)
  kinase still bound, per cent of control: 100%
TGFBR1 (human)
  kinase still bound, per cent of control: 100%
FGFR4 (human)
  kinase still bound, per cent of control: 56%
BRSK1 (human)
  kinase still bound, per cent of control: 100%
[4]
  kinase still bound, per cent of control: 100%
PAK7 (human)
  kinase still bound, per cent of control: 64%
AKT3 (human)
  kinase still bound, per cent of control: 61%
PAK1 (human)
  kinase still bound, per cent of control: 83%
ANKK1 (human)
  kinase still bound, per cent of control: 100%
WEE2 (human)
  kinase still bound, per cent of control: 87%
DCLK2 (human)
  kinase still bound, per cent of control: 0.4%
PRKAA2 (human)
  kinase still bound, per cent of control: 100%
STK35 (human)
  kinase still bound, per cent of control: 95%
[5]
  kinase still bound, per cent of control: 91%
[6]
  kinase still bound, per cent of control: 88%
[7]
  kinase still bound, per cent of control: 64%

## COc1cc(N2CCN(C)CC2)ccc1Nc1ncc2c(n1)N(C)c1ccccc1N(C)C2=O
NTRK3 (human)
  kinase still bound, per cent of control: 79%
INSRR (human)
  kinase still bound, per cent of control: 55%
ACVRL1 (human)
  kinase still bound, per cent of control: 100%
MAPK12 (human)
  kinase still bound, per cent of control: 78%
BTK (human)
  kinase still bound, per cent of control: 78%
PHKG1 (human)
  kinase still bound, per cent of control: 54%
MAP2K6 (human)
  kinase still bound, per cent of control: 65%
PKN2 (human)
  kinase still bound, per cent of control: 100%
NEK7 (human)
  kinase still bound, per cent of control: 81%
[1]
  kinase still bound, per cent of control: 100%
CHEK2 (human)
  kinase still bound, per cent of control: 97%
SLK (human)
  kinase still bound, per cent of control: 100%
CAMK2D (human)
  kinase still bound, per cent of control: 99%
CDC42BPB (human)
  kinase still bound, per cent of control: 100%
RPS6KA4 KD1 (human)
  kinase still bound, per cent of control: 100%
TNK2 (human)
  kinase still bound, per cent of control: 20%
ROCK2 (human)
  kinase still bound, per cent of control: 50%
RPS6KA5 KD1 (human)
  kinase still bound, per cent of control: 100%
MAP4K1 (human)
  kinase still bound, per cent of control: 100%
PAK2 (human)
  kinase still bound, per cent of control: 94%
FLT4 (human)
  kinase still bound, per cent of control: 100%
[2]
  kinase still bound, per cent of control: 100%
[3]
  kinase still bound, per cent of control: 100%
EPHA5 (human)
  kinase still bound, per cent of control: 99%
TEC (human)
  kinase still bound, per cent of control: 100%
NEK1 (human)
  kinase still bound, per cent of control: 96%
RET (human)
  kinase still bound, per cent of control: 100%
TGFBR1 (human)
  kinase still bound, per cent of control: 97%
FGFR4 (human)
  kinase still bound, per cent of control: 97%
BRSK1 (human)
  kinase still bound, per cent of control: 84%
[4]
  kinase still bound, per cent of control: 53%
PAK7 (human)
  kinase still bound, per cent of control: 79%
AKT3 (human)
  kinase still bound, per cent of control: 100%
PAK1 (human)
  kinase still bound, per cent of control: 92%
ANKK1 (human)
  kinase still bound, per cent of control: 91%
WEE2 (human)
  kinase still bound, per cent of control: 100%
DCLK2 (human)
  kinase still bound, per cent of control: 68%
PRKAA2 (human)
  kinase still bound, per cent of control: 94%
STK35 (human)
  kinase still bound, per cent of control: 100%
[5]
  kinase still bound, per cent of control: 100%
[6]
  kinase still bound, per cent of control: 43%
[7]
  kinase still bound, per cent of control: 94%

## CN1C(=O)c2ccccc2N(C)c2nc(NS(=O)(=O)c3ccc(N)cc3)ncc21
NTRK3 (human)
  kinase still bound, per cent of control: 72%
INSRR (human)
  kinase still bound, per cent of control: 100%
ACVRL1 (human)
  kinase still bound, per cent of control: 100%
MAPK12 (human)
  kinase still bound, per cent of control: 100%
BTK (human)
  kinase still bound, per cent of control: 100%
PHKG1 (human)
  kinase still bound, per cent of control: 100%
MAP2K6 (human)
  kinase still bound, per cent of control: 100%
PKN2 (human)
  kinase still bound, per cent of control: 70%
NEK7 (human)
  kinase still bound, per cent of control: 89%
[1]
  kinase still bound, per cent of control: 100%
CHEK2 (human)
  kinase still bound, per cent of control: 100%
SLK (human)
  kinase still bound, per cent of control: 100%
CAMK2D (human)
  kinase still bound, per cent of control: 100%
CDC42BPB (human)
  kinase still bound, per cent of control: 100%
RPS6KA4 KD1 (human)
  kinase still bound, per cent of control: 100%
TNK2 (human)
  kinase still bound, per cent of control: 100%
ROCK2 (human)
  kinase still bound, per cent of control: 100%
RPS6KA5 KD1 (human)
  kinase still bound, per cent of control: 99%
MAP4K1 (human)
  kinase still bound, per cent of control: 80%
PAK2 (human)
  kinase still bound, per cent of control: 100%
FLT4 (human)
  kinase still bound, per cent of control: 100%
[2]
  kinase still bound, per cent of control: 100%
[3]
  kinase still bound, per cent of control: 100%
EPHA5 (human)
  kinase still bound, per cent of control: 100%
TEC (human)
  kinase still bound, per cent of control: 100%
NEK1 (human)
  kinase still bound, per cent of control: 100%
RET (human)
  kinase still bound, per cent of control: 100%
TGFBR1 (human)
  kinase still bound, per cent of control: 100%
FGFR4 (human)
  kinase still bound, per cent of control: 100%
BRSK1 (human)
  kinase still bound, per cent of control: 97%
[4]
  kinase still bound, per cent of control: 100%
PAK7 (human)
  kinase still bound, per cent of control: 88%
AKT3 (human)
  kinase still bound, per cent of control: 88%
PAK1 (human)
  kinase still bound, per cent of control: 100%
ANKK1 (human)
  kinase still bound, per cent of control: 32%
WEE2 (human)
  kinase still bound, per cent of control: 100%
DCLK2 (human)
  kinase still bound, per cent of control: 70%
PRKAA2 (human)
  kinase still bound, per cent of control: 96%
STK35 (human)
  kinase still bound, per cent of control: 100%
[5]
  kinase still bound, per cent of control: 100%
[6]
  kinase still bound, per cent of control: 100%
[7]
  kinase still bound, per cent of control: 38%
